ChEMBL document CHEMBL4428137, “Development of a Potent and Selective HDAC8 Inhibitor” (ACS Med Chem Lett, 2016)
pIC50: −log10 of the molar value. One block for each compound: values may come before it. Calls of active or inactive are those of the source. No cut-off for these calls is given here.

Experiments:
Histone deacetylase 1 = Histone deacetylase 1 (Homo sapiens, UniProt Q13547); assay: Inhibition of recombinant full length human C-terminal FLAG/His-tagged HDAC1 expressed in baculovirus expression system using fluorophore-conjugated substrate by fluorescence assay
Histone deacetylase 2 = Histone deacetylase 2 (Homo sapiens, UniProt Q92769); assay: Inhibition of recombinant full length human HDAC2 expressed in sf9 cells using fluorophore-conjugated substrate by fluorescence assay
Histone deacetylase 3 = Histone deacetylase 3 (Homo sapiens, UniProt O15379); assay: Inhibition of recombinant full length human C-terminal His-tagged HDAC3 expressed in sf9 cells co-expressing human N-terminal GST-tagged NCOR2 (395 to 489 residues) using fluorophore-conjugated substrate by fluorescence assay
[1] = biological target: T1, Protein deacetylase HDAC6 (Homo sapiens) (UniProt Q9UBN7); assay: (§1) Inhibition of recombinant full length human HDAC6 expressed in sf9 cells using fluorophore-conjugated substrate by fluorescence assay
T1 sequence (whole entry): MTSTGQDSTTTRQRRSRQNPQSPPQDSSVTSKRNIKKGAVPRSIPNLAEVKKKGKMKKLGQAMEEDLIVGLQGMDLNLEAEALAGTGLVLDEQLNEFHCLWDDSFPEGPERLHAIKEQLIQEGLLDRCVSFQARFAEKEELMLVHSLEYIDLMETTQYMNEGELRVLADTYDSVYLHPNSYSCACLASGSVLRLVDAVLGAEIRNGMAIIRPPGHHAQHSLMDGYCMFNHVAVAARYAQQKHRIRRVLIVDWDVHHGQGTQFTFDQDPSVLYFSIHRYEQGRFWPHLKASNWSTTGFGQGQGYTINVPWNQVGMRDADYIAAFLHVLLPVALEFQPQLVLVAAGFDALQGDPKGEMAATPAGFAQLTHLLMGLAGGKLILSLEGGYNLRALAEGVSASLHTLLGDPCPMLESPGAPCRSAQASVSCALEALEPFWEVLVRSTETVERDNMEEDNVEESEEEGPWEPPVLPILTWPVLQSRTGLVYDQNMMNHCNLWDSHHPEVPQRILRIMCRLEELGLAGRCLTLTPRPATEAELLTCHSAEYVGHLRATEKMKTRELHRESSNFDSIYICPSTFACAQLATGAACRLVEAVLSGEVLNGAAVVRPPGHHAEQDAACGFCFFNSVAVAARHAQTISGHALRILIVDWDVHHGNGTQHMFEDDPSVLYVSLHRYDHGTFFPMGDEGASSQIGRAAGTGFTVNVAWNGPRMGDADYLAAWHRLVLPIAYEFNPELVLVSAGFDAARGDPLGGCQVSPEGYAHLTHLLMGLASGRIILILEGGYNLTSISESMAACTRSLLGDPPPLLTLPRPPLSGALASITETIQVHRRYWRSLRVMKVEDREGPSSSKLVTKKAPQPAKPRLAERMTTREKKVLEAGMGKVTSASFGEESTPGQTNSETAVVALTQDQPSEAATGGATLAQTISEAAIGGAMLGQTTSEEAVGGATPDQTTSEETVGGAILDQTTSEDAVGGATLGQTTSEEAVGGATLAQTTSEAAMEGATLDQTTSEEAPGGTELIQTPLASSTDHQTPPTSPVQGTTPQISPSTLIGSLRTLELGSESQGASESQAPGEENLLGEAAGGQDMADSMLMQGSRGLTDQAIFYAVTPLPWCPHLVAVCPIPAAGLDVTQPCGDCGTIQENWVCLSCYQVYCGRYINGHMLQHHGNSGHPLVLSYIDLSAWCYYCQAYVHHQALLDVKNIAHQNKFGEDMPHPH

Histone deacetylase 4 = Histone deacetylase 4 (Homo sapiens, UniProt P56524); assay: Inhibition of HDAC4 (unknown origin)
Histone deacetylase 5 = Histone deacetylase 5 (Homo sapiens, UniProt Q9UQL6); assay: Inhibition of HDAC5 (unknown origin)
[2] = biological target: T2, Histone deacetylase 7 (Homo sapiens) (UniProt Q8WUI4); assay: (§2) Inhibition of HDAC7 (unknown origin)
T2 sequence (whole entry): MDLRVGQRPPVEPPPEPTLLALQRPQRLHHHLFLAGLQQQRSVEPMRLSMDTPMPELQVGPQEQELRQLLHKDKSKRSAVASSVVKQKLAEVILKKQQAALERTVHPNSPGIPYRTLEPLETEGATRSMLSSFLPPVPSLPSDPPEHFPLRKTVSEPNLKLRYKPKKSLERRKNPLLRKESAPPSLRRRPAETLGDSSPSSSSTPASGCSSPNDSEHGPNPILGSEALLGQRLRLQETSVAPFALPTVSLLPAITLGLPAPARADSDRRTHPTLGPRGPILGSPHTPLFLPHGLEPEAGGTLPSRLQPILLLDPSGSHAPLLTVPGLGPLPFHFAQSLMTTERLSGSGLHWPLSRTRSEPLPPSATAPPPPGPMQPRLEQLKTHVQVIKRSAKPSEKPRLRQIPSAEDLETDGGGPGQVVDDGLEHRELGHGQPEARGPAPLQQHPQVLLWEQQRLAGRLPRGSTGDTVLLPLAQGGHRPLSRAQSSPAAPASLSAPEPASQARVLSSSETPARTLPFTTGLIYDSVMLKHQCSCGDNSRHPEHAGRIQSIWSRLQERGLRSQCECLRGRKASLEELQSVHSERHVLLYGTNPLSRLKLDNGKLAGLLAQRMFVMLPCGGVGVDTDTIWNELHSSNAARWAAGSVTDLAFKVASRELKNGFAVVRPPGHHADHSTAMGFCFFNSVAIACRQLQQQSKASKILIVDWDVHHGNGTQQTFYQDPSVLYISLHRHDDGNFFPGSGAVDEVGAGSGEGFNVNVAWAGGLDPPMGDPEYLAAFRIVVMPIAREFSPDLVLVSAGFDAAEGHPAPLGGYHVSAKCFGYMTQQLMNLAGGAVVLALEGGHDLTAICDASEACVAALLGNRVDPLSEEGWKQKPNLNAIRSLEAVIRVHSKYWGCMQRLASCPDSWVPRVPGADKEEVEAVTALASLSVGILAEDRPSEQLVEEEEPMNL

[3] = biological target: T3, Histone deacetylase 8 (Homo sapiens) (UniProt Q9BY41); assay: (§3) Inhibition of HDAC8 (unknown origin) using fluorophore-conjugated substrate by fluorescence assay
T3 sequence (whole entry): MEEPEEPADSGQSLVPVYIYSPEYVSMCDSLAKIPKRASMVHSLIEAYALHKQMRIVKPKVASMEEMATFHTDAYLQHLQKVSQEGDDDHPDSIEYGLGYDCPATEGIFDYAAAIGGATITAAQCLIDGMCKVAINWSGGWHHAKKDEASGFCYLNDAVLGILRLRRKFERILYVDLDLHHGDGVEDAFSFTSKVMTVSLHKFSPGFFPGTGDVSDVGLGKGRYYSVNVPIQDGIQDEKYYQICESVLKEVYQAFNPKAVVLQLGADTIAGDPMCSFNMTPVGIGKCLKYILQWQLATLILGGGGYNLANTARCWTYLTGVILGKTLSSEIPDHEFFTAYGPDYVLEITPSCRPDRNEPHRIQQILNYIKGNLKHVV

Histone deacetylase 9 = Histone deacetylase 9 (Homo sapiens, UniProt Q9UKV0); assay: Inhibition of HDAC9 (unknown origin)
[4] = biological target: T4, Protein deacetylase HDAC6 (Homo sapiens, UniProt Q9UBN7); assay: as §1
T4 sequence (Q9UBN7 whole entry): T1 sequence (whole entry)

Histone deacetylase 7 = biological target: T5, Histone deacetylase 7 (Homo sapiens, UniProt Q8WUI4); assay: as §2
T5 sequence (Q8WUI4 whole entry): T2 sequence (whole entry)

Histone deacetylase 8 = biological target: T6, Histone deacetylase 8 (Homo sapiens, UniProt Q9BY41); assay: as §3
T6 sequence (Q9BY41 whole entry): T3 sequence (whole entry)

Chain of Histone deacetylase 9 (Q9UKV0 whole entry): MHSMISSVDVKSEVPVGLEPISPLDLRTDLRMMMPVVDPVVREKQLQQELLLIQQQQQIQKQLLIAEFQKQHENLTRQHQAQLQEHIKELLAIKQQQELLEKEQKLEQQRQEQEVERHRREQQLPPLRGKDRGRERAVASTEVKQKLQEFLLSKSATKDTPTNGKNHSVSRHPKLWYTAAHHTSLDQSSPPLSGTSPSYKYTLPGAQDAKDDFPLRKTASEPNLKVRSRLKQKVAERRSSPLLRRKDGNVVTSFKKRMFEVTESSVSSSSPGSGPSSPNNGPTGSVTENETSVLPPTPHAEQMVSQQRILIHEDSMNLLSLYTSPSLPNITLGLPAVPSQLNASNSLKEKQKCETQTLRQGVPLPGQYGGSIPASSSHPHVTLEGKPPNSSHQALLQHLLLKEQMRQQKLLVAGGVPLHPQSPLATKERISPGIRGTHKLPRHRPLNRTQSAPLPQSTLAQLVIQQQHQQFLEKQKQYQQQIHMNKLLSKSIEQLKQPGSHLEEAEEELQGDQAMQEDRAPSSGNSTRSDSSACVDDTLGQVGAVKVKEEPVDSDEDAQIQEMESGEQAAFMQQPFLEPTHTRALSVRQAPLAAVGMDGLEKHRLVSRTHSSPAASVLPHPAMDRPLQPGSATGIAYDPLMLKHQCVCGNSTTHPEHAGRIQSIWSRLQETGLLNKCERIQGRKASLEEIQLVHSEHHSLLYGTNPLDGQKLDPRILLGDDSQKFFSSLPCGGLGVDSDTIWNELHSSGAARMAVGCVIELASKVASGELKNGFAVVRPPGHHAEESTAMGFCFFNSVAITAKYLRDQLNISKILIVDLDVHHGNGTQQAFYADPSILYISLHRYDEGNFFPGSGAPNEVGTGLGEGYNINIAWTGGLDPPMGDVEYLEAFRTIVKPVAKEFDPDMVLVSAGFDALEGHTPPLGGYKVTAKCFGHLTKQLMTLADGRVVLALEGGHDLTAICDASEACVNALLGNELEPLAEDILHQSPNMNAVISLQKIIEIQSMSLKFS
Chain of Histone deacetylase 4 (P56524 whole entry): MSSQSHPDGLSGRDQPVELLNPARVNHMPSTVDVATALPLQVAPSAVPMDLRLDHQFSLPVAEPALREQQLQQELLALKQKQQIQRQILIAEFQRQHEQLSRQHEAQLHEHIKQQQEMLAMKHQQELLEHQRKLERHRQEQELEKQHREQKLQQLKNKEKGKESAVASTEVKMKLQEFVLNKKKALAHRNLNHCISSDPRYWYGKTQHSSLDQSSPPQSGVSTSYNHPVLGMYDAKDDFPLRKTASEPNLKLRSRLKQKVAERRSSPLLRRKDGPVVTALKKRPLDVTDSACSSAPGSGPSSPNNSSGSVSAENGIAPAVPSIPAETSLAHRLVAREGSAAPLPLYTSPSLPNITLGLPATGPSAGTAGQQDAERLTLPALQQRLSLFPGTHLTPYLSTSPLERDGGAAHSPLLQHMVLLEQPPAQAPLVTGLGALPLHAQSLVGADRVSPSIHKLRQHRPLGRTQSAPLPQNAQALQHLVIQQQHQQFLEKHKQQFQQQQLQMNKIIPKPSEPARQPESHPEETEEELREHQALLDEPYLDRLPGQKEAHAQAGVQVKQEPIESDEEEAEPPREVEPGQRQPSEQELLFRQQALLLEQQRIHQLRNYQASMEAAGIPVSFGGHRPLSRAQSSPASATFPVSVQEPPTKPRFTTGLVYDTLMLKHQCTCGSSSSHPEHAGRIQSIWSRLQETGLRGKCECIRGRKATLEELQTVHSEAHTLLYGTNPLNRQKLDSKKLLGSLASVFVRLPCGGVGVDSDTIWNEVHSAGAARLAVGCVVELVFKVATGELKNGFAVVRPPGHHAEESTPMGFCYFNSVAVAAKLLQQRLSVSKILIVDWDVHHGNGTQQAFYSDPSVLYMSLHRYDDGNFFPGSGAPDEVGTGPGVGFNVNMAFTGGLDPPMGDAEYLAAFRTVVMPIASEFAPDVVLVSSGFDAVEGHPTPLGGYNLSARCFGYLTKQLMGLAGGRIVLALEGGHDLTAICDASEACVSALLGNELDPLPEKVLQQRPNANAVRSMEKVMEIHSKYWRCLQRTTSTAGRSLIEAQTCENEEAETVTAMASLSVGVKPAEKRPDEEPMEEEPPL
Chain of Histone deacetylase 1 (Q13547 whole entry): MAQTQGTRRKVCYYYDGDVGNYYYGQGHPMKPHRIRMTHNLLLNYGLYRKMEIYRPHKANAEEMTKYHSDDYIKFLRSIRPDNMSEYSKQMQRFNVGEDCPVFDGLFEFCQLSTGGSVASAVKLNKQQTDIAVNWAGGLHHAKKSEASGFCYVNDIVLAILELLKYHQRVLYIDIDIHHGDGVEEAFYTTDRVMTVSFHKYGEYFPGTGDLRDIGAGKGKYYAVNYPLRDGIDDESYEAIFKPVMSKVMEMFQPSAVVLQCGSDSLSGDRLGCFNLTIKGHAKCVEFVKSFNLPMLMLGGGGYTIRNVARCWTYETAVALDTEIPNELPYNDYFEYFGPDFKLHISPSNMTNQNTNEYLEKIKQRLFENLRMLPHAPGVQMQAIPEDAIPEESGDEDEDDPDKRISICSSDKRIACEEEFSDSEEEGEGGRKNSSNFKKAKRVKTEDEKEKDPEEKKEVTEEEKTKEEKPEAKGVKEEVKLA
Chain of Histone deacetylase 2 (Q92769 whole entry, the tested form may be a part): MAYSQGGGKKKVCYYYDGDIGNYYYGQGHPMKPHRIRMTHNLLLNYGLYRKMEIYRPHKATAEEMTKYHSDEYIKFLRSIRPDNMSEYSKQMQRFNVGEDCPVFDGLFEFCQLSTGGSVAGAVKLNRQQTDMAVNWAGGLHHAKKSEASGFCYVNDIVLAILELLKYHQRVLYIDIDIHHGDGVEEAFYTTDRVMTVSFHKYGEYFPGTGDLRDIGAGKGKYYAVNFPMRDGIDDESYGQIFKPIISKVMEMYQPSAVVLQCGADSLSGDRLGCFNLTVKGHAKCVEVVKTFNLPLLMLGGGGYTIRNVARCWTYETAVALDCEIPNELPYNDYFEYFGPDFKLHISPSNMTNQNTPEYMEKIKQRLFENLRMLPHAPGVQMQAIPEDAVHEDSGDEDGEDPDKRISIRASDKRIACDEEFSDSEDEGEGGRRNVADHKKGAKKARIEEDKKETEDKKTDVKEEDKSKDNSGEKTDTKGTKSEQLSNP
Chain of Histone deacetylase 5 (Q9UQL6 whole entry): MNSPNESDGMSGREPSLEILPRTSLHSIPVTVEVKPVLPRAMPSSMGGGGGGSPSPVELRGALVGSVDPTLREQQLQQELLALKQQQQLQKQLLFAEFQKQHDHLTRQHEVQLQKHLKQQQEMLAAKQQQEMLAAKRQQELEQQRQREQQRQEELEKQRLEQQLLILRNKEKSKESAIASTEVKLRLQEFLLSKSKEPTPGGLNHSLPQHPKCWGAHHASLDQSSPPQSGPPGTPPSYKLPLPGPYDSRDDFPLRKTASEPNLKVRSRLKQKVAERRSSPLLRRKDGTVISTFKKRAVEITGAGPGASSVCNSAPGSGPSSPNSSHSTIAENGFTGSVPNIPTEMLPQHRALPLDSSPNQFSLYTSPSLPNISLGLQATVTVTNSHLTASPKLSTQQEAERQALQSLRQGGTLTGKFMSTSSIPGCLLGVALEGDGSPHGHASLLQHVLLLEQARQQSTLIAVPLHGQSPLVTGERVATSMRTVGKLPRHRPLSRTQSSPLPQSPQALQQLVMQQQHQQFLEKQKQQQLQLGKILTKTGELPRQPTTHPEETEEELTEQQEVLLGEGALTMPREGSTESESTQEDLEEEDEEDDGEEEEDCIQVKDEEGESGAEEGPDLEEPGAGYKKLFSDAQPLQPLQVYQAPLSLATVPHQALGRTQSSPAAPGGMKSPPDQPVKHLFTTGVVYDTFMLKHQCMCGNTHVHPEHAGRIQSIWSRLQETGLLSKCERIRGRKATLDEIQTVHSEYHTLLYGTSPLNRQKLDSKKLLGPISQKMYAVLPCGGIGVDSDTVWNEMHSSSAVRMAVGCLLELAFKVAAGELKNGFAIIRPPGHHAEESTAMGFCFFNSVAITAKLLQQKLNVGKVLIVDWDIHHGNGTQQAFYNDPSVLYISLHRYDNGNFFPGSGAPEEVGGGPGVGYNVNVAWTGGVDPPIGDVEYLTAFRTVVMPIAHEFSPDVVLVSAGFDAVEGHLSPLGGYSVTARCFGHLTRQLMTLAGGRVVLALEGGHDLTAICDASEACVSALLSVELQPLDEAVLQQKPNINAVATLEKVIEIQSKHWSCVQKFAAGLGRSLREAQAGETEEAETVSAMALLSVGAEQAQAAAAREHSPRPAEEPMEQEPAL
Chain of Histone deacetylase 3 (O15379 whole entry, the tested form may be a part): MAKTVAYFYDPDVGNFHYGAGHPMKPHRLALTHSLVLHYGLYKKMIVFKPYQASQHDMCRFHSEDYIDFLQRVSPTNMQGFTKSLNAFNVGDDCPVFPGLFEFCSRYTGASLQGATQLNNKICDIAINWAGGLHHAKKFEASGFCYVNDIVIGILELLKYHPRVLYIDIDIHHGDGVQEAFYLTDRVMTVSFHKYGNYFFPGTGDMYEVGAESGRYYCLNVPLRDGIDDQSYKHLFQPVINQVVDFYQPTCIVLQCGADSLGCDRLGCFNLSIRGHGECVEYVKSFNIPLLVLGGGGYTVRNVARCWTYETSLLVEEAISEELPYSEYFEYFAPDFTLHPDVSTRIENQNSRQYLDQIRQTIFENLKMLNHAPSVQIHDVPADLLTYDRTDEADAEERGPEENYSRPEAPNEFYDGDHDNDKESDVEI

inhibition (Histone deacetylase 1): inactive
inhibition (Histone deacetylase 2): inactive
inhibition (Histone deacetylase 3): inactive
inhibition [1]: inactive
inhibition (Histone deacetylase 4): inactive
inhibition (Histone deacetylase 5): inactive
inhibition [2]: inactive
inhibition [3]: inactive
inhibition (Histone deacetylase 9): inactive
Compound: COC(=O)[C@H](Cc1ccccc1)n1nnc(-c2ccccc2)c1C#Cc1ccccc1

pIC50 (Histone deacetylase 1): 5.37
pIC50 (Histone deacetylase 2): < 4.70
pIC50 (Histone deacetylase 3): < 4.70
pIC50 [4]: 5.92
pIC50 (Histone deacetylase 4): < 4.70
pIC50 (Histone deacetylase 5): < 4.70
pIC50 (Histone deacetylase 7): < 4.70
pIC50 (Histone deacetylase 8): 9.10
pIC50 (Histone deacetylase 9): < 4.70
Compound: O=C(NO)[C@H](Cc1ccccc1)n1nnc(-c2ccccc2)c1C#CC1CC1

pIC50 (Histone deacetylase 8): 5.64
Compound: CC(C)[C@@H](C(=O)NO)n1nnc(-c2ccccc2)c1C#Cc1ccccc1

pIC50 (Histone deacetylase 8): 5.82
Compound: CCc1ccc(C#Cc2c(-c3ccccc3)nnn2[C@@H](Cc2ccccc2)C(=O)NO)cc1

pIC50 (Histone deacetylase 8): 5.04
Compound: O=C(NO)[C@H](Cc1ccccc1)n1nnc(-c2ccccc2)c1C#Cc1ccc(-c2ccccc2)cc1

pIC50 (Histone deacetylase 1): < 4.70
pIC50 (Histone deacetylase 2): < 4.70
pIC50 (Histone deacetylase 3): < 4.70
pIC50 [4]: 5.44
pIC50 (Histone deacetylase 4): < 4.70
pIC50 (Histone deacetylase 5): < 4.70
pIC50 (Histone deacetylase 7): < 4.70
pIC50 (Histone deacetylase 8): 8.00
pIC50 (Histone deacetylase 9): < 4.70
Compound: O=C(NO)[C@H](Cc1ccccc1)n1nnc(-c2ccccc2)c1C#Cc1ccccc1

pIC50 (Histone deacetylase 8): 8.15
Compound: O=C(NO)[C@H](Cc1c[nH]c2ccccc12)n1nnc(-c2ccccc2)c1C#CC1CC1

inhibition [3]: inactive
Compound: O=C(NO)[C@H](Cc1ccccc1)n1nnc(-c2ccccc2)c1CCC1CC1

pIC50 (Histone deacetylase 8): 8.10
Compound: O=C(NO)[C@H](Cc1ccccc1)n1nnc(-c2cccc(Cl)c2)c1C#CC1CC1

pIC50 (Histone deacetylase 8): 6.80
Compound: CCCCCc1c(-c2ccccc2)nnn1[C@@H](Cc1ccccc1)C(=O)NO

pIC50 (Histone deacetylase 8): 6.88
Compound: CC(C)(C)c1ccc(-c2nnn([C@@H](Cc3ccccc3)C(=O)NO)c2C#CC2CC2)cc1

inhibition (Histone deacetylase 1): inactive
inhibition (Histone deacetylase 2): inactive
inhibition (Histone deacetylase 3): inactive
inhibition [1]: inactive
inhibition (Histone deacetylase 4): inactive
inhibition (Histone deacetylase 5): inactive
inhibition [2]: inactive
inhibition [3]: inactive
inhibition (Histone deacetylase 9): inactive
Compound: O=C(NO)[C@@H](Cc1ccccc1)n1nnc(-c2ccccc2)c1C#Cc1ccccc1

inhibition (Histone deacetylase 1): inactive
inhibition (Histone deacetylase 2): inactive
inhibition (Histone deacetylase 3): inactive
inhibition [1]: inactive
inhibition (Histone deacetylase 4): inactive
inhibition (Histone deacetylase 5): inactive
inhibition [2]: inactive
inhibition [3]: inactive
inhibition (Histone deacetylase 9): inactive
Compound: O=C(NO)[C@H](Cc1ccccc1)n1cc(-c2ccccc2)nn1

pIC50 (Histone deacetylase 8): 8.52
Compound: COc1cc(OC)cc(-c2nnn([C@@H](Cc3ccccc3)C(=O)NO)c2C#CC2CC2)c1

inhibition [3]: inactive
Compound: O=C(NO)[C@H](Cc1ccccc1)n1nnc(-c2ccccc2)c1/C=C/C1CC1

pIC50 (Histone deacetylase 8): 8.40
Compound: O=C(NO)[C@H](Cc1ccccc1)n1nnc(-c2ccsc2)c1C#CC1CC1

inhibition (Histone deacetylase 1): inactive
inhibition (Histone deacetylase 2): inactive
inhibition (Histone deacetylase 3): inactive
inhibition [1]: inactive
inhibition (Histone deacetylase 4): inactive
inhibition (Histone deacetylase 5): inactive
inhibition [2]: inactive
inhibition [3]: inactive
inhibition (Histone deacetylase 9): inactive
Compound: O=C(O)[C@H](Cc1ccccc1)n1nnc(-c2ccccc2)c1C#Cc1ccccc1

inhibition (Histone deacetylase 1): inactive
inhibition (Histone deacetylase 2): inactive
inhibition (Histone deacetylase 3): inactive
inhibition [1]: inactive
inhibition (Histone deacetylase 4): inactive
inhibition (Histone deacetylase 5): inactive
inhibition [2]: inactive
inhibition [3]: inactive
inhibition (Histone deacetylase 9): inactive
Compound: CNC(=O)[C@H](Cc1ccccc1)n1nnc(-c2ccccc2)c1C#Cc1ccccc1

pIC50 (Histone deacetylase 8): 6.33
Compound: CCC/C=C/c1c(-c2ccccc2)nnn1[C@@H](Cc1ccccc1)C(=O)NO
